Tests used:
[1] = test system: human PBMCs; assay: Immunoassays for cytokines in human PBMCs; type: cell-based; conditions: hPBMC stimulated 12 h with graded concentrations
[2] = biological target: T1, human TLR8 (Homo sapiens, UniProt Q9NR97); assay: Human TLR8-specific HEK-Blue reporter gene assay; type: cell-based; conditions: human TLR8-transfected HEK293 cells, NF-κB reporter
T1 sequence (Q9NR97 27-1041): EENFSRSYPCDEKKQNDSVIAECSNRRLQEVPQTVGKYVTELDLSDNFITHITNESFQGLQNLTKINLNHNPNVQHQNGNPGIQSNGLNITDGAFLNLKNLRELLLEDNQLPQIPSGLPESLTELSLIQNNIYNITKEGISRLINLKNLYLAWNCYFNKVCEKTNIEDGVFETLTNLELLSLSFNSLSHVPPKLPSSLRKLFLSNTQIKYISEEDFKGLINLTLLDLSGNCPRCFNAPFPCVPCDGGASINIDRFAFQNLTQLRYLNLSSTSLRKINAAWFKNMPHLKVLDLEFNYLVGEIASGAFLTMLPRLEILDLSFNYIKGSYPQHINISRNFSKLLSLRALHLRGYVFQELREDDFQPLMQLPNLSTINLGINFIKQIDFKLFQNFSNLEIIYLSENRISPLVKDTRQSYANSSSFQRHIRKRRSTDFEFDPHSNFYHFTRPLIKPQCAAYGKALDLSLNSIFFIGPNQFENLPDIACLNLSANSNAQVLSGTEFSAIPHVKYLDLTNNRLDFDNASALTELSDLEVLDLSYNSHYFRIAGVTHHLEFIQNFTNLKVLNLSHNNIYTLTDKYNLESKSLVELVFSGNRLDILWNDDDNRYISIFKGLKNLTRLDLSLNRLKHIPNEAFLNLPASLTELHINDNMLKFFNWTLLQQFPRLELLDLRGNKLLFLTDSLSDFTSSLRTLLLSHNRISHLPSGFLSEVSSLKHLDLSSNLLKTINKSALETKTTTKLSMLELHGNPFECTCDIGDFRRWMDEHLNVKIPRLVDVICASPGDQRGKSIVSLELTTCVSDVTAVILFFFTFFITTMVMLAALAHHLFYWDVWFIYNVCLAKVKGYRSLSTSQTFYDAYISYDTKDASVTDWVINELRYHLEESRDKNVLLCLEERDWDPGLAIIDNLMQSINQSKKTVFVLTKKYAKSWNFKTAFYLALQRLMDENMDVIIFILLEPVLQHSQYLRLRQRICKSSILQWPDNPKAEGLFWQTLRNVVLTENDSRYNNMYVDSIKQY

[3] = test system: human PBMCs; assay: Transcriptomal profiling in human PBMCs; type: cell-based; conditions: human PBMC, 10 μg/mL, two hours, fold change threshold 2.0
[4] = test system: NF-κB; conditions: previously observed; cited from earlier work
[5] = cited from earlier work
[6] = previously observed; cited from earlier work

| dose-response profile (area-under the-curve) remark [2] | SMILES | proinflammatory cytokine induction [1] | other results |
| --- | --- | --- | --- |
| – | Cc1ncc(CO)c2c(Nc3ccccn3)c(NCc3ccccc3)oc12 [Compound 28, (2-(benzylamino)-7-methyl-3-(pyridin-2-ylamino)furo[2,3-c]pyridin-4-yl)methanol] | none of the furo[2,3-c]pyridines showed any proinflammatory cytokine induction | – |
| Very low AUC | Cc1ncc(CO)c2c(Nc3ccccc3)c(NCc3ccccc3)oc12 [Compound 36, (2-(benzylamino)-7-methyl-3-(phenylamino)furo[2,3-c]pyridin-4-yl)methanol] | – | – |
| – | CCCCNc1oc2c(C)ncc(CO)c2c1Nc1ccccn1 [Compound 37a, (2-(butylamino)-7-methyl-3-(pyridin-2-ylamino)furo[2,3-c]pyridin-4-yl)methanol] | none of the furo[2,3-c]pyridines showed any proinflammatory cytokine induction | – |
| – | CCCCCNc1oc2c(C)ncc(CO)c2c1Nc1ccccn1 [Compound 37b, (7-methyl-2-(pentylamino)-3-(pyridin-2-ylamino)furo[2,3-c]pyridin-4-yl)methanol] | none of the furo[2,3-c]pyridines showed any proinflammatory cytokine induction | chemokine ligand gene expression [3]: upregulated several chemokine ligand (both CXCL and CCL) genes; transcriptional signatures of inflammation [3]: no transcriptional signatures of inflammation |
| Low AUC | CCCC(C)Nc1oc2c(C)ncc(CO)c2c1Nc1ccccn1 (stereo not drawn) [Compound 37d, (7-methyl-2-(pentan-2-ylamino)-3-(pyridin-2-ylamino)furo[2,3-c]pyridin-4-yl)methanol] | – | – |
| – | Cc1ncc(CO)c2c(Nc3ccccn3)c(NC[Si](C)(C)C)oc12 [Compound 37f, (7-methyl-3-(pyridin-2-ylamino)-2-(((trimethylsilyl)methyl)amino)furo[2,3-c]pyridin-4-yl)methanol] | none of the furo[2,3-c]pyridines showed any proinflammatory cytokine induction | chemokine ligand gene expression [3]: upregulated several chemokine ligand (both CXCL and CCL) genes; transcriptional signatures of inflammation [3]: no transcriptional signatures of inflammation |
| Low AUC | Cc1ncc(CO)c2c(Nc3ccccn3)c(NCCC(=O)OC(C)(C)C)oc12 [Compound 37i, tert-butyl 3-((4-(hydroxymethyl)-7-methyl-3-(pyridin-2-ylamino)furo[2,3-c]pyridin-2-yl)amino)propanoate] | – | – |
| Very low AUC | Cc1ncc(CO)c2c(Nc3ccccn3)c(N[C@@H](C)c3ccccc3)oc12 [Compound 37m, (S)-(7-methyl-2-((1-phenylethyl)amino)-3-(pyridin-2-ylamino)furo[2,3-c]pyridin-4-yl)methanol] | – | – |
| Low AUC | CCCCCNc1oc2c(C)ncc(CO)c2c1Nc1ccccc1 [Compound 38a, (7-methyl-2-(pentylamino)-3-(phenylamino)furo[2,3-c]pyridin-4-yl)methanol] | – | – |
| Low AUC | CCCCCNc1oc2c(C)ncc(CO)c2c1Nc1cccc(F)c1 [Compound 38b, (3-((3-fluorophenyl)amino)-7-methyl-2-(pentylamino)furo[2,3-c]pyridin-4-yl) methanol] | – | – |
| Low AUC | CCCCCNc1oc2c(C)ncc(CO)c2c1Nc1cccc([N+](=O)[O-])c1 [Compound 38c, (7-methyl-3-((3-nitrophenyl)amino)-2-(pentylamino)furo[2,3-c]pyridin-4-yl)methanol] | – | – |
| – | Clc1ccc2c(NCCCCNc3ccnc4cc(Cl)ccc34)ccnc2c1 [Compound 41, 7-chloro-N-(4-(7-chloroquinolin-4-ylamino)butyl) quinolin-4-amine] | – | NF-κB transactivation [4]: potent NF-κB transactivation; adjuvantic activity [5]: potent adjuvant; proinflammatory cytokine induction [6]: unaccompanied by any proinflammatory cytokine induction |

From article PMC3461104 (Journal of medicinal chemistry, 2012)
